Measurements: DBAASP
In brackets after ≈: the same amount, converted by molar mass. Several values for one entry are separate records, joined by “and”; a condition that tells them apart may be missing. Equal values may be shown once. One block for each compound: values may come before it.

Key:
Experiment in all cases: ≥ marks a high value that may be exact or a test limit, other limits are often not marked, values filed in µg/mL are converted to µM
[1] = test system: Salmonella enterica subsp. arizonae
Klebsiella pneumoniae = test system: Klebsiella pneumoniae
Bibersteinia trehalosi = test system: Bibersteinia trehalosi
Aspergillus fumigatus = test system: Aspergillus fumigatus
[2] = test system: Mannheimia haemolytica Serovar 6
[3] = test system: Mannheimia haemolytica Serovar 2
Pasteurella multocida = test system: Pasteurella multocida
[4] = test system: Corynebacterium pseudotuberculosis ATCC 19410
[5] = test system: Mannheimia haemolytica Serovar 1
Staphylococcus aureus = test system: Staphylococcus aureus
[6] = test system: Pseudomonas aeruginosa PAO1
[7] = test system: Salmonella enterica serovar Typhimurium MS4252S
Escherichia coli UB1005 = test system: Escherichia coli UB1005
Escherichia coli O111 = test system: Escherichia coli O111
Candida albicans 105 = test system: Candida albicans 105
Escherichia coli DC2 = test system: Escherichia coli DC2
[8] = test system: Enterococcus faecalis ATCC 29212
[9] = test system: Staphylococcus epidermidis
[10] = test system: Salmonella enterica subsp. enterica serovar Typhimurium ATCC 14028s
[11] = test system: Staphylococcus aureus 1056
Candida albicans 3153A = test system: Candida albicans 3153A
Escherichia coli O157:H7 = test system: Escherichia coli O157:H7
[12] = test system: Staphylococcus aureus R147
[13] = test system: Staphylococcus aureus NCTC 4163
[14] = test system: Pseudomonas aeruginosa Z61

MIC [1]: 12 µM (≈ 20 µg/mL) | MIC (Klebsiella pneumoniae): 4.01 µM (≈ 6.7 µg/mL) | MIC (Bibersteinia trehalosi): 2.99 µM (≈ 5 µg/mL) | MIC (Aspergillus fumigatus): 4.96 µM (≈ 8.3 µg/mL) | MIC (Pasteurella multocida): 2.99 µM (≈ 5 µg/mL) | MIC [4]: 12 µM (≈ 20 µg/mL) | MIC (Staphylococcus aureus): 5.98 µM (≈ 9.99 µg/mL) | MIC [6]: 1.02 µM (≈ 1.7 µg/mL)
Compound: CC[C@H](C)[C@H](NC(=O)[C@H](Cc1cnc[nH]1)NC(=O)[C@@H](NC(=O)[C@@H](NC(=O)[C@H](CCCCN)NC(=O)[C@H](CCCN=C(N)N)NC(=O)[C@@H](NC(=O)[C@@H](NC(=O)[C@H](CCCN=C(N)N)NC(=O)[C@H](CCCN=C(N)N)NC(=O)[C@@H](N)CC(C)C)[C@@H](C)CC)[C@@H](C)CC)[C@@H](C)CC)[C@@H](C)CC)C(=O)N[C@H](C(=O)N[C@@H](CCCCN)C(N)=O)[C@@H](C)CC [LRRIIRKIIHIIK]
MIC [2]: 2.51 µM (≈ 4.2 µg/mL) | MIC [3]: 1.02 µM (≈ 1.7 µg/mL) | MIC [5]: 1.97 µM (≈ 3.3 µg/mL)

MIC [7]: 0.0416 µM (≈ 0.125 µg/mL) | MIC (Escherichia coli UB1005): 0.0416 µM (≈ 0.125 µg/mL) | MIC (Escherichia coli O111): 0.665 µM (≈ 2 µg/mL) | MIC (Candida albicans 105): 10.6 µM (≈ 32 µg/mL) | MIC (Escherichia coli DC2): 0.0416 µM (≈ 0.125 µg/mL) | MIC [8]: 10.6 µM (≈ 32 µg/mL) | MIC [9]: 5.32 µM (≈ 16 µg/mL) | MIC [10]: 0.166 µM (≈ 0.5 µg/mL) | MIC [11]: 5.32 µM and 8.65 µM | MIC (Candida albicans 3153A): 5.32 µM (≈ 16 µg/mL) | MIC (Escherichia coli O157:H7): 2.66 µM and 5.42 µM | MIC [12]: 21.3 µM (≈ 64 µg/mL) | MIC [13]: 10.6 µM (≈ 32 µg/mL) | MIC [14]: 2.66 µM (≈ 8 µg/mL) | MIC [6]: 1.33 µM (≈ 4 µg/mL)
Compound: CC[C@H](C)[C@H](NC(=O)[C@@H]1CCCN1C(=O)[C@@H]1CCCN1C(=O)[C@H](CCCN=C(N)N)NC(=O)[C@H](Cc1ccccc1)NC(=O)[C@@H](N)CCCN=C(N)N)C(=O)N[C@@H](CCCN=C(N)N)C(=O)N[C@@H](CCCN=C(N)N)C(=O)N1CCC[C@H]1C(=O)N1CCC[C@H]1C(=O)N[C@H](C(=O)N[C@@H](CCCN=C(N)N)C(=O)N1CCC[C@H]1C(=O)N1CCC[C@H]1C(=O)N[C@@H](Cc1ccccc1)C(=O)N[C@@H](CCCN=C(N)N)C(=O)N1CCC[C@H]1C(=O)N1CCC[C@H]1C(=O)N[C@@H](Cc1ccccc1)C(=O)N[C@@H](CCCN=C(N)N)C(=O)N1CCC[C@H]1C(=O)N1CCC[C@H]1C(=O)N[C@H](C(=O)N[C@@H](CCCN=C(N)N)C(N)=O)C(C)C)[C@@H](C)CC [RFRPPIRRPPIRPPFRPPFRPPVR]
